Here are results for one molecule from patent publication US20020161052A1, “Terminally-branched polymeric linkers and polymeric conjugates containing the same” (priority 2001, published 2002).

One experiment deals with LX-1. Nature of the experiment: LX-1 subcutaneous tumor in athymic nude mice. It is filed as in vivo. To be noted: 100 mg/kg, i.v. q3d×4, athymic nude mice; mean baseline tumor volume 1000 mm^3.
For experiment [1], the system named is P388/O (murine lymphoid neoplasm) cell line. Nature of the experiment: In vitro bioassay, cell growth by Alamar Blue. It is filed as cell-based. To be noted: Mus musculus, 72 h; P388/O cells, three days, 37° C., in duplicate; SD ± 10%. The protocol:
A series of in vitro assays were conducted to determine the IC50 for unmodified Ara-C and compound 10 using the P388/O (murine lymphoid neoplasm, Southern Research Institute) cell line. The P388/0 cells were grown in RPMI 1640 medium (Whittaker Bioproducts, Walkersville, Md.) +10% FBS (Hyclone Inc., Logan UT). Bioassays were performed in their respective media containing antibiotics and fungizone.
Ara-C was dissolved in DMSO and diluted to the appropriate concentration in culture media. The PEG-Ara-C compounds were dissolved in water and diluted to the appropriate concentrations in culture media.
The assays were performed in duplicate in 96-well microtiter cell culture plates. Two fold serial dilution of the compounds were done in the microtiter plates. Cells were detached by incubating with 0.1% Trypsin/Versene at 37°. Trypsin was inactivated by adding the appropriate media for each cell line containing 10% FBS. To each well of the microtiter plates, 10,000 cells were added. After three days, cell growth was measured by addition of a metabolic indicator dye, Alamar Blue, according to the manufacturer's protocol. The IC50 value for the test compounds and reference compound are provided above in the Table.
(The colour change of resazurin is a common sign of viable cells or microbes.)

Protocol for LX-1: Athymic nude mice were implanted subcutaneous with a 4-5 mm^3 tissue fragment of LX-1 collected from donor mice. The tumor trocar site was observed twice weekly and measured once palpable. The tumor volume for each mouse was determined by measuring two dimensions with calipers and calculated using the formula: tumor volume=(length×width^2)/2. […] The mice were sorted to evenly distribute tumor size, grouped into 4 to 6 mice/group, and ear punched for permanent identification. Drugs were administered intravenously q3d×4 (Day 1, 4, 7 and 10) via the tail vein at an approximate rate of 0.5 mL per minute.

As usually defined, the IC50 is the midpoint of a concentration-inhibition curve. Higher therefore signals a need for much substance. Turning to `Nc1ccn([C@@H]2O[C@H](CO)[C@@H](O)[C@@H]2O)c(=O)n1` [Ara-C, cytosine arabinoside], the “LX-1 % T/C” value in the experiment on LX-1 was 74.0%. Besides, 10 nM corresponded to half-maximal inhibition in experiment [1] (IC50).
